Reference: paper PMC11417994, “Cyclohexanediamine Triazole (CHDT) Functionalization Enables Labeling of Target Molecules with Al^18F/^68Ga/^111In” (Bioconjugate Chemistry, 2024)

Target: T1, PSMA (Homo sapiens, UniProt Q04609)
T1 construct: Detection of endogenous PSMA expression in LNCaP and PC3 cells relative to β-actin expression by Western; host or cells: LNCaP human prostate carcinoma cells (monolayer, spheroids or Potter-Elvehjem homogenates)
Assay: Saturation binding using LNCaP cell homogenates
Experimental: The binding affinity of the nonlabeled CHDT-PSMA-1/2/3, PSMA-1007, PSMA-617, and KuE was assessed in competition binding assays using LNCaP cell homogenates (∼1 × 10^6 cells/mL using Potter-Elvehjem) and the radioligand [^177Lu]Lu-PSMA-617 (n = 5 for CHDT-PSMA-1; n = 4 for CHDT-PSMA-2/3; n = 2 for PSMA-1007; n = 8 for PSMA-617; n = 6 for KuE). […] The assays were performed in a final volume of 200 μL. The incubation was stopped by washing the homogenate with cold PBS four times using a filter (Whatman GF/C, 90 min presoaked in 0.3% polyethylenimine) in a cell harvester (Brandel, USA). The radioactivity bound to the filter was measured in a gamma counter. Filter binding was determined for adjacent samples without cell homogenate. […] The Kd value of [^177Lu]Lu-PSMA-617 was determined in saturation binding assays using LNCaP cell homogenates to be 15.2 (±2.1) nM. […]
Dissociations constants (Kd and Kd,int), as well as maximal binding capacities (Bmax and Bmax,int), were derived from specific binding data by nonlinear regression according to the model of “One site-specific binding” as implemented in GraphPad Prism 10. Protein content was determined using the bicinchoninic acid protein assay kit (Pierce, Thermo Scientific) to calculate the binding capacities in pmol/mg and for the time-depending internalization the internalized percent of administrated dose per μg protein (% AD/μg protein).

T1 sequence (Q04609 whole entry): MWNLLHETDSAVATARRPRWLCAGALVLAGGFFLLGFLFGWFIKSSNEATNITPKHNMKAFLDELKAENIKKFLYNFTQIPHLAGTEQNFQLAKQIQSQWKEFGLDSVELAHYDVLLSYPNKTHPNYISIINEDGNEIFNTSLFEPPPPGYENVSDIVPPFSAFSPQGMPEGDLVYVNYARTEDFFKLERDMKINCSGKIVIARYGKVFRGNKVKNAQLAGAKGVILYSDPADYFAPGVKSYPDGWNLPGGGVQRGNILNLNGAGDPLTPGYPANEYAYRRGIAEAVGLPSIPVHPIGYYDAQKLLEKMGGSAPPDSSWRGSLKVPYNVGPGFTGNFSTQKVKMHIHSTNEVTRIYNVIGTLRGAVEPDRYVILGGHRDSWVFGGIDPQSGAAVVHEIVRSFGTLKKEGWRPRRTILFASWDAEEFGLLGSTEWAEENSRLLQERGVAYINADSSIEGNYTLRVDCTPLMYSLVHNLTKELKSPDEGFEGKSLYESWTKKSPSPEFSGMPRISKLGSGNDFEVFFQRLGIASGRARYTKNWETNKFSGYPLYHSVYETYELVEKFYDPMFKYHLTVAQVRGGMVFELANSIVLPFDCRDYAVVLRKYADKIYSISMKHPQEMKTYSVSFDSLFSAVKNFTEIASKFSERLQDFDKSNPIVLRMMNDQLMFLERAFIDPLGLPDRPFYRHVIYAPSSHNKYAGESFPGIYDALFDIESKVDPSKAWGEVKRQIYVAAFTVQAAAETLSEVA

[^177Lu]Lu-PSMA-617 gave a Kd of 15.2 nM.
